{"source": "patent US20050234015A1", "about": "“Low molecular weight heparin salt with triethanolamine useful as therapeutic-antitrombotic agent of local delivery, procedures for preparing them, process for elimination of hygroscopicity of heparin salt, pharmaceutical compositions for local use in antithrombotic therapy and uses therein” (priority 2004, published 2005)", "key": {"[1]": {"experiment": "hygroscopicity of the lyophilized product (observation)", "format": "physicochemical", "conditions": "lyophilized solid", "description": "The salt obtained from the reaction of the triethanolamine (TEA) with the low molecular weight heparin (LMWH) is an amber colored substance, with a waxy appearance, extremely difficult to manipulate due to its high hygroscopicity. These characteristics of the LMWH-TEA salt make extremely difficult its precise dosage in the preparation of the pharmaceutical end products (creams, gels, ointments)."}, "[2]": {"tested_on": "Xa", "experiment": "anti Xa strength, European Pharmacopoeia 2002 Low Molecular Mass Heparin", "format": "biochemical", "experimental": "(§1) The anti Xa and anti IIa biological strengths were measured according to the European Pharmacopoeia EP2002; “Low Molecular Mass Heparin”, as well as the mean molecular weights (weighed average Mw) and the molecular weight distribution. Moreover, the standards and gages are those strictly cited in the mentioned literature. It is noted that in the run buffer for the chromatographic test by HPLC (Na2SO4, 0.2M pH 5.0) the TEA is replaced by N^a+ whereby the declared value is that of the sodium polysaccharide fraction and not the one of the LMWH-TEA salt.\n(§2) 7) Analytical Techniques Used • The anticoagulant strength of injectable heparin was determined according to European Pharmacopoeia 2002 (EP strength) and to USP 26 (USP strength) • Anti Xa and anti ha strengths were determined according to the literature of low molecular weight heparins (European Pharmacopoeia 2002) • Distribution of molecular weights and mean ponderal molecular weight were determined according to the literature of low molecular weight heparins (European Pharmacopoeia 2002), therefore, in the run buffer, TEA is replaced by Na^+ and the data obtained then pertain to polysaccharide sodium salt and not to TEA salt. • Triethanolamine is dosed by potentiometric titration."}, "[3]": {"tested_on": "experimental thrombosis in the tail of the test rat", "experiment": "κ-carrageenan rat tail thrombosis model, local cream treatment", "format": "in vivo, Wister rats (female)", "conditions": "1000 u antiXa/gram, compared with local heparin and LMWH sodium salt creams", "description": "With such criteria, Wister rats (female) raised in the laboratory and sanitarily controlled were used as test mammal.\nParticularly, the thrombosis model developed consists of generating an experimental thrombosis in the tail of the test rat by intravenous injection (right caudal vein) of a thrombogenic substance such as κ-carrageenan. Without treatment, the tail of the animal totally forms thrombus without remission over time and ends up with necrosis after 3-4 days.\nParticularly, this test was carried out according to the general outlines in Beckmeier et al, Agents and Actions, 16, 446 (1985), as follows:\na. Animals: female rats of 200-300 grams weight.\nb. Thrombosing Solution: κ carrageenan Type II solution (Sigma C 1263) 1 mg/ml in sterile physiologic solution. 1 ml /kg of animal (right caudal vein of the tail) is injected (0.25 ml).\nc. Thrombus induction: a tourniquet is placed near the tail base (15 cm from the end thereof) which was previously shaved. After 1 minute a thrombosing solution is injected and the animal tail is immediately immersed for 30 seconds in ice water, water is removed, it is dried and the tourniquet is kept for an additional 30 seconds. Then, the animal is kept for 2 minutes in a chamber at 10° C.\nd. […]"}, "[4]": {"biological_target": "T1, IIa (Homo sapiens, UniProt P00734)", "experiment": "anti IIa strength, European Pharmacopoeia 2002 Low Molecular Mass Heparin", "format": "biochemical", "experimental": "as §1, §2"}, "[5]": {"tested_on": "Xa", "conditions": "LMWH sodium salt by radical fragmentation methods, European Pat. 268885, U.S. Pat. No. 4,977,250; cited from earlier work"}, "[6]": {"biological_target": "T1, IIa", "conditions": "LMWH sodium salt by radical fragmentation methods, European Pat. 268885, U.S. Pat. No. 4,977,250; cited from earlier work"}, "[7]": {"experiment": "anticoagulant strength of injectable heparin according to European Pharmacopoeia 2002 (EP strength)", "format": "biochemical", "experimental": "as §2"}, "[8]": {"conditions": "Example 3 comparison: LMWH-TEA of Example 2 vs lyophilizate with mannitol (60:40)"}, "[9]": {"conditions": "theoretical calculation: 100 g LMWH-Na = 167 g LMWH-TEA"}}, "note": "Where two headings read alike, the source gives them in different places.", "data": [{"substance": "low molecular weight heparin salt with triethanolamine [LMWH-TEA]", "values": [{"measurement": "hygroscopicity", "setting": "[1]", "result": "highly hygroscopic"}, {"measurement": "anti Xa Strength", "setting": "[2]; [8]", "result": 50, "unit": "iu/mg"}, {"measurement": "anti Xa Strength", "setting": "[2]; product of Example 1 (HClO depolymerization, diafiltration with TEA)", "result": 51, "unit": "iu/mg"}, {"measurement": "anti Xa Strength", "setting": "[2]; product of Example 2 (H2O2/FeSO4 depolymerization, ion exchange resin, TEA)", "result": 50, "unit": "iu/mg"}, {"measurement": "anti Xa, Experimental", "setting": "[2]; summary of experimental data", "result": "50-51 iu/mg"}, {"measurement": "anti Xa, Theoretical", "setting": "[2]; [9]", "result": 54, "unit": "iu/mg"}, {"measurement": "efficacy against thrombosis, in words", "setting": "[3]", "result": "highly significant restitutive activity"}, {"measurement": "anti IIa Strength", "setting": "[4]; [8]", "result": 24, "unit": "iu/mg"}, {"measurement": "anti IIa Strength", "setting": "[4]; product of Example 1", "result": 24, "unit": "iu/mg"}, {"measurement": "anti IIa Strength", "setting": "[4]; product of Example 2", "result": 24, "unit": "iu/mg"}, {"measurement": "anti IIa, Experimental", "setting": "[4]; summary of experimental data", "result": 24, "unit": "iu/mg"}, {"measurement": "anti IIa, Theoretical", "setting": "[4]; [9]", "result": 24, "unit": "iu/mg"}]}, {"substance": "low molecular weight heparin sodium salt [LMWH Na]", "values": [{"measurement": "anti Xa Strength", "setting": "[5]", "result": "~90", "unit": "iu/mg"}, {"measurement": "anti IIa Strength", "setting": "[6]", "result": "~40", "unit": "iu/mg"}]}, {"substance": "heparin [Injectable Heparin]", "values": [{"measurement": "EP Strength", "setting": "[7]; starting injectable heparin of Example 1", "result": 182, "unit": "iu/mg"}, {"measurement": "EP Strength", "setting": "[7]; starting injectable heparin of Example 2", "result": 180, "unit": "iu/mg"}]}]}
